Measured values reported in the supplement of paper PMC10883282.
Counter-ions that a name gives are not always drawn. ± gives the standard deviation of the averaged measurements.

Tested on: SW982
Assay: relative viability vs DMSO control (72 h) (fraction); higher = more viable cells
In short: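 Sarcoma cell lines were seeded in 384-well plates at densities set to reach 80–90% confluence. After 24 h, 2.5 µl of serially diluted compound was added (source plates 10 mM to 0.0002 mM), and plates were held 72 h at 37 °C, 5% CO2, with 0.1% DMSO vehicle and a 5 µM positive control. Relative viability came from ATPLite readings as percent growth, averaged over up to triplicate wells. Data were rescaled so full viability equals 1 and none equals 0.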

| SMILES | relative viability (2 pM) | relative viability (5 pM) | relative viability (15 pM) | relative viability (50 pM) | relative viability (0.00014 µM) | relative viability (0.00041 µM) | relative viability (0.0012 µM) | relative viability (0.0037 µM) | relative viability (0.011 µM) | relative viability (200 fM) | relative viability (600 fM) | relative viability (0.00017 µM) | relative viability (0.00051 µM) | relative viability (0.00152 µM) | relative viability (0.00457 µM) | relative viability (0.01372 µM) | relative viability (0.04115 µM) | relative viability (0.1235 µM) | relative viability (0.3704 µM) | relative viability (1.111 µM) | relative viability (3.333 µM) | relative viability (10 µM) |
| --- | --- | --- | --- | --- | --- | --- | --- | --- | --- | --- | --- | --- | --- | --- | --- | --- | --- | --- | --- | --- | --- | --- |
| COc1cc2c(cc1O)CCN[C@]21CS[C@@H]2c3c(OC(C)=O)c(C)c4c(c3[C@H](COC1=O)N1[C@@H]2[C@H]2c3c(cc(C)c(OC)c3O)C[C@@H]([C@@H]1O)N2C)OCO4 [Trabectedin] | 0.929 ± 0.036 | 0.86 ± 0.035 | 0.765 ± 0.031 | 0.639 ± 0.034 | 0.385 ± 0.021 | 0.266 ± 0.0099 | 0.194 ± 0.0051 | 0.186 ± 0.0075 | 0.1406 ± 0.00098 | 0.987 ± 0.031 | 0.9423 ± 0.004 | – | – | – | – | – | – | – | – | – | – | – |
| CN1CCN(c2ccc3nc(-c4c(N)c5c(F)cccc5[nH]c4=O)[nH]c3c2)CC1 [Dovitinib] | – | – | – | – | – | – | – | – | – | – | – | 1.02 ± 0.018 | 1.03 ± 0.041 | 1.01 ± 0.015 | 0.98 ± 0.027 | 1.01 ± 0.059 | 1.01 ± 0.059 | 0.94 ± 0.036 | 0.793 ± 0.012 | 0.483 ± 0.015 | 0.237 ± 0.022 | 0.0627 ± 0.033 |
| C[C@@H]1COCCN1c1cc(-c2ccnn2C)c2ccnc(-c3ccn[nH]3)c2n1 | – | – | – | – | – | – | – | – | – | – | – | 1.04 ± 0.031 | 1.05 ± 0.052 | 1.05 ± 0.056 | 1.04 ± 0.015 | 0.989 ± 0.028 | 0.685 ± 0.039 | 0.499 ± 0.009 | 0.322 ± 0.011 | 0.1893 ± 0.0012 | 0.149 ± 0.002 | 0.142 ± 0.0075 |
| Cn1cc(-c2cc3c(N4CCN(c5ncc([C@@](C)(N)c6ccc(F)cc6)cn5)CC4)ncnn3c2)cn1 [Avapritinib] | – | – | – | – | – | – | – | – | – | – | – | 0.99 ± 0.026 | 0.956 ± 0.05 | 0.957 ± 0.093 | 0.93 ± 0.07 | 0.964 ± 0.061 | 0.962 ± 0.081 | 0.902 ± 0.033 | 0.928 ± 0.025 | 0.905 ± 0.044 | 0.894 ± 0.033 | 0.8071 ± 0.0062 |
| C[C@]1(O)C[C@@H](c2nc(-c3ccc4ccc(-c5ccccc5)nc4c3)c3c(N)nccn32)C1 [Linsitinib] | – | – | – | – | – | – | – | – | – | – | – | 1.01 ± 0.028 | 1.04 ± 0.026 | 1.03 ± 0.028 | 1.05 ± 0.031 | 1.05 ± 0.028 | 1.02 ± 0.041 | 0.918 ± 0.041 | 0.875 ± 0.035 | 0.824 ± 0.045 | 0.79 ± 0.035 | 0.583 ± 0.021 |
| Cc1nc(NC(=O)N2CCC[C@H]2C(N)=O)sc1-c1ccnc(C(C)(C)C(F)(F)F)c1 [Alpelisib] | – | – | – | – | – | – | – | – | – | – | – | 0.989 ± 0.04 | 0.929 ± 0.033 | 0.98 ± 0.021 | 0.95 ± 0.02 | 0.997 ± 0.014 | 0.959 ± 0.055 | 0.964 ± 0.031 | 0.927 ± 0.052 | 0.845 ± 0.026 | 0.725 ± 0.022 | 0.596 ± 0.026 |
| COc1cccc2c1C(=O)c1c(O)c3c(c(O)c1C2=O)C[C@@](O)(C(=O)CO)C[C@@H]3O[C@H]1C[C@H](N)[C@H](O)[C@H](C)O1 [Doxorubicin Hydrochloride] | – | – | – | – | – | – | – | – | – | – | – | 1.05 ± 0.0095 | 1.05 ± 0.057 | 1.07 ± 0.025 | 1.04 ± 0.035 | 0.796 ± 0.022 | 0.457 ± 0.025 | 0.326 ± 0.019 | 0.1607 ± 0.0012 | 0.127 ± 0.0062 | 0.165 ± 0.005 | 0.139 ± 0.0092 |
| CNC(=O)c1ccc(-c2cnc3ncc(Cc4ccc5ncccc5c4)n3n2)cc1F [Capmatinib] | – | – | – | – | – | – | – | – | – | – | – | 1.04 ± 0.023 | 1.07 ± 0.045 | 1.07 ± 0.076 | 1.042 ± 0.0035 | 1.06 ± 0.067 | 1.03 ± 0.025 | 1.04 ± 0.028 | 1.06 ± 0.045 | 1.07 ± 0.06 | 1.06 ± 0.057 | 1.02 ± 0.024 |
| Cc1ccc(NC(=O)c2ccc(CN3CCN(C)CC3)cc2)cc1Nc1nc(-c2cccnc2)cs1 [Masitinib] | – | – | – | – | – | – | – | – | – | – | – | 0.965 ± 0.027 | 0.996 ± 0.01 | 0.989 ± 0.015 | 0.983 ± 0.02 | 0.97 ± 0.026 | 0.961 ± 0.033 | 0.923 ± 0.025 | 0.89 ± 0.027 | 0.784 ± 0.045 | 0.513 ± 0.03 | 0.0613 ± 0.0081 |
